The results in this text go back to paper doi:10.1101/2025.03.26.645438v1 (bioRxiv, 2025).

One series can be described thus: Pharmacokinetics. It is filed as in vivo, rat. Conditions: SD male rats, single dose 0.05 mg/kg, plasma, LC-MS/MS, WinNonlin, mean n=3.
For series [1], the system named is diabetic db/db mouse model. The series is described as follows: Acute glucose-lowering after single dose in db/db mice. It is filed as in vivo.
For series [2], the system named is diabetic db/db mouse model. The series is described as follows: Long-term glucose-lowering after multiple doses. The class given is in vivo. The conditions noted are these: db/db mice, kidney injury marker after multiple administration 10 nmol/kg.
For series [3], the system named is diet-induced obese (DIO) mice. The series is described as follows: Weight loss in diet-induced obese. The conditions noted are these: 10 nmol/kg. It is filed as in vivo, mouse.

With Semaglutide, in the series “Pharmacokinetics”, the “half-life (T1/2)” value was determined as 8.17 h and the “mean residence time (MRT0-t), 0-[…]” value is 14.21 h. Further, the “time up to which the decrease of non-fasting blood glucose persisted” value in series [1] (single dose 10 nmol/kg) was found to be 24 h. Moreover, in series [1] (single dose 10 nmol/kg subcutaneous, mean±SD, n=6, SD), the “lowest non-fasting blood glucose level” value amounted to 15.57 ± 5.16 mmol/L. Further, the “acute glucose-lowering effect compared with model group” value in series [1] (single dose 10 nmol/kg, non-fasting glucose 0-120 hours) is “comparable glucose-lowering effects”. In series [2], the “serum creatinine (Scr)” value is “significantly reduced” and the urinary albumin levels result was “significantly reduced”. Moreover, in series [3] (multiple administrations), the fat index result is “reduced”. This substance also yielded a body weight reduction in series [3] (multiple administrations over 21 days, n=5) of 21.54%.
